These results are taken from US20190336504A1, “TREATMENT AND PREVENTION OF CYTOKINE RELEASE SYNDROME USING A CHIMERIC ANTIGEN RECEPTOR IN COMBINATION WITH A KINASE INHIBITOR” (Novartis AG, priority 2016, published 2019).

Like-named read-outs stand apart in the source and are kept apart here.

Experiment [1] has as its system primary MCL cells. It counts as in vivo, NOD-SCID gamma-chain deficient mice (NSG). The procedure:
This example describes the development of such a model generated by intravenously injecting NOD-SCID gamma-chain deficient mice (NSG) with primary MCL cells collected from a patient with relapsed MCL (FIG. 3A). NOD SCID Gamma-chain deficient mice were injected with 2×10^6 primary MCL cells intravenously. […] Mice were then followed up for clinical signs, T cell engraftment, tumor burden and survival.
NOD SCID Gamma-chain deficient mice were injected with 2×10^6 primary MCL cells intravenously. […] Mice were then followed up for clinical signs, T cell engraftment, tumor burden and survival. […] See, e.g., Ruella et al. Clin Cancer Res 2016; 10.1158/1078-0432.CCR-15-1527.

The test system of experiment [2] is primary MCL cells. Kind of experiment: Cytokine production of primary MCL cells incubated for 24 hours with ibrutinib. It counts as cell-based. Conditions: FIG. 4F. Here is the method: (§1) All graphs in FIGS. 4B-4F are representative of two independent experiments (5 mice per group). Student's t-test was used to compare two groups; in analysis where multiple groups were compared, one-way analysis of variance (ANOVA) was performed with Holm-Sidak correction for multiple comparisons. Survival curves were compared using the log-rank test. Asterisks represent p-values (*=<0.05, **=<0.01, ***=<0.001, ****=<0.0001) and “ns” means “not significant” (p>0.05).

The test system of a further experiment is B cell neoplasms. It counts as in vivo, mice.
Excerpt: For FIGS. 3C-3E, all graphs were representative of two independent experiments (5 mice per group). Student's t-test was used to compare two groups. Survival curves were compared using the log-rank test. Asterisks represent p-values (*=<0.05, **=<0.01, ***=<0.001, ****=<0.0001) and “ns” means “not significant” (p>0.05).
as §1

Another experiment has as its system primary AML blasts. It counts as in vivo. Here is the method:
For the development of CRS preclinical models, NOD-SCID-γ chain−/− (NSG) transgenic for human interleukin-3, stem cell factor and granulocyte macrophage colony-stimulating factor (NSG-S) were used. These were purchased from the Stem Cell and Xenograft Core of the University of Pennsylvania (originally obtained from Jackson Laboratories). Schemas of the utilized xenograft models are discussed in detail in the relevant figures and the Results section herein. Cells were injected in 200 ul of phosphate-buffered saline at the indicated concentration into the tail veins.
Ruxolitinib was purchased from Selleckchem, dissolved in DMSO and diluted to the indicated concentrations. […] Blood. […] Blood. […] Blood. 2016.
See, e.g., Gill S, Tasian S K, Ruella M, et al. Preclinical targeting of human acute myeloid leukemia and myeloablation using chimeric antigen receptor-modified T cells. Blood. 2014; 123:2343-2354. In particular, NSG-S mice were engrafted with primary AML blasts (5×10^6) and bled after 2-4 weeks to confirm engraftment. Mice then were treated with high doses of CART123 1×10^6 by intravenous tail vein single injection and monitored with serial clinical examinations, weight recording and retro-orbital bleedings for leukemia burden assessment and cytokine analysis. […] (CART123 were injected on day 41 post AML injection in the experiment.)
The experiments in this Example investigated ruxolitinib as a modality to prevent or reduce CRS severity after CART123 in the AML xenograft model described herein. NSGS mice were engrafted with primary AML blasts (5×10^6) and bled after 2-4 weeks to confirm peripheral blood engraftment. NSGS mice bearing primary AML were treated with CART123 (1×10^6) by intravenous tail vein single injection along with ruxolitinib or vehicle control. The mice were randomized to receive different doses of ruxolitinib (30 mg/kg, 60 mg/kg or 90 mg/kg) or vehicle by oral gavage twice a day. Treatment started on the day of CART123 injection and continued for a week (FIG. 2A). Mice were then monitored with serial clinical examinations, weight recording, retro-orbital bleedings for leukemia burden assessment and cytokine analysis and followed for survival.

The next experiment relates to AML. Conditions: summary statement.

Consider `C=CC(=O)N1CCC[C@@H](n2nc(-c3ccc(Oc4ccccc4)cc3)c3c(N)ncnc32)C1` [ibrutinib, 1-[(3R)-3-[4-Amino-3-(4-phenoxyphenyl)-1H-pyrazolo[3,4-d]pyrimidin-1-yl]piperidin-1-yl]prop-2-en-1-one], for which the “overall survival (OS)” value in the experiment on primary MCL cells [1] (CART19 + ibrutinib 125 mg/Kg/day in drinking water vs CART19 alone) is given as “prolonged overall survival”. The “CART19 expansion in the PB” value in the experiment with primary MCL cells [1] (CART19 + ibrutinib vs CART19 alone) is “augmented”. Besides, the “cytokines in the peripheral blood (IL-6, IFNg, TNFα, IL-2, GM-CSF)” value in the experiment with primary MCL cells [1] (day 4, ibrutinib-treated mice) was “significantly reduced”. Moreover, the cytokine production result with primary MCL cells [2] is listed as “significant cytokine production in a dose-dependent manner”. Further, the T cell expansion entry in the experiment with B cell neoplasms (CART19-treated mice, ibrutinib or vehicle treatment, FIG. 4D) is listed as “augmented”. Further, the “CRS after a CD19 CAR therapy” value with B cell neoplasms (CD19 CAR therapy for B cell neoplasms, summary statement) is reported as “improve or prevent CRS”. The “serum cytokines involved in CRS (Luminex)” value in the experiment on B cell neoplasms (mice treated with CART19+ibrutinib vs CART19, FIG. 4E) is “significant reduction”. Further, the overall survival result in the experiment with B cell neoplasms (mice treated with CART19 plus ibrutinib (vs CART19 plus vehicle), FIG. 4B, log-rank test) is “significantly increased”.

With `N#CC[C@H](C1CCCC1)n1cc(-c2ncnc3[nH]ccc23)cn1` [ruxolitinib, (3R)-3-cyclopentyl-3-[4-(7H-pyrrolo[2,3-d]pyrimidin-4-yl)pyrazol-1-yl]propanenitrile], in the experiment on primary AML blasts (70 days post AML injection, live human CD45 positive cells), the “leukemia in peripheral blood of surviving mice” value is on record as “all surviving mice had eradication of leukemia”. Moreover, in the experiment on primary AML blasts (all groups: CART123 + ruxolitinib 30, 60 or 90 mg/kg or vehicle), the anti-leukemic effect result was “equivalent anti-leukemic effect”. In the experiment with primary AML blasts (ruxolitinib 60 mg/kg + CART123), the “T cell expansion in the peripheral blood” value is given as “blunted T cell expansion”, the leukemia burden result is given as “leukemia eradication”, the “levels of inflammatory cytokines” value is given as “reduced levels of inflammatory cytokines” and the weight loss entry is listed as “transient weight loss”. Besides, the survival result in the experiment on primary AML blasts (ruxolitinib 60 mg/kg + high dose CART123) is “long-term disease free survival”. Moreover, the “clinical illness (CRS) manifested by weight loss” value in the experiment on primary AML blasts (ruxolitinib 60 mg/kg oral gavage twice a day for a week + CART123, vs CART123 alone or + 30 mg/kg) is recorded as “less severe clinical illness”. For the same molecule, the “clinical illness (CRS) manifested by weight loss” value with primary AML blasts (ruxolitinib 90 mg/kg oral gavage twice a day for a week + CART123, vs CART123 alone or + 30 mg/kg) is listed as “less severe clinical illness”. In addition, in the experiment with primary AML blasts (ruxolitinib with CART123), the direct anti-tumor activity result is “no direct anti-tumor activity” and the “effect on anti-tumor activity of CART123” value was “did not impair”. For the same molecule, the “cytokine release syndrome (CRS) after CART cell therapy” value in the experiment with AML (CART cell therapy for hematological cancers, such as AML) was “ameliorate cytokine release syndrome (CRS) severity or prevent CRS”. The “anti-tumor effect of the CART therapy” value with AML (combination with JAK-STAT kinase inhibitor) was “without significantly impairing”.
